# Experimental data published in ChEMBL document CHEMBL5352436, “Triterpenoid pyrazines and pyridines - Synthesis, cytotoxicity, mechanism of action, preparation of prodrugs” (Eur J Med Chem, 2022).
# The source made the active and inactive calls. The rule behind the calls is not given here.
# What was measured:
# [1] = Stability in human liver microsomes assessed as compound remaining at 2 uM measured at 30 mins in presence of NADPH by RF-MS analysis; format: ADME, Microsome; conditions: read-out: Stability
# [2] = Chemical stability in PBS buffer at pH 7.4 assessed as compound remaining measured at 120 mins by RF-MS analysis; format: physicochemical; conditions: read-out: Stability
# [3] = Stability in human plasma assessed as compound remaining at 2 uM measured at 120 mins by RF-MS analysis; format: ADME, cell-free; conditions: read-out: Stability
# [4] = Stability in human plasma assessed as compound remaining at 2 uM measured at 60 mins by RF-MS analysis; format: ADME, cell-free; conditions: read-out: Stability
# [5] = Stability in human liver microsomes assessed as compound remaining at 2 uM measured at 15 mins in presence of NADPH by RF-MS analysis; format: ADME, Microsome; conditions: read-out: Stability
# U2OS = test: Cytotoxicity against human U2OS cells assessed as reduction in cell viability incubated for 72 hrs by MTS assay; format: functional, cell-based
# [6] = Stability in human plasma assessed as compound remaining at 2 uM measured at 15 mins by RF-MS analysis; format: ADME, cell-free; conditions: read-out: Stability
# [7] = Chemical stability in PBS buffer at pH 7.4 assessed as compound remaining measured at 30 mins by RF-MS analysis; format: physicochemical; conditions: read-out: Stability
# [8] = Stability in human plasma assessed as compound remaining at 2 uM measured at 30 mins by RF-MS analysis; format: ADME, cell-free; conditions: read-out: Stability
# [9] = Chemical stability in PBS buffer at pH 7.4 assessed as compound remaining measured at 60 mins by RF-MS analysis; format: physicochemical; conditions: read-out: Stability
# [10] = Cytotoxicity against human MRC5 cells assessed as reduction in cell viability incubated for 72 hrs by MTS assay; format: toxicity, cell-based
# [11] = Apparent permeability of the compound in MDCK-MDR1 cells assessed as drug recovery at 10 uM incubated for 1 hr by RF-MS analysis; format: ADME, cell-based, Canis lupus familiaris; conditions: dog, read-out: Drug recovery
# CCRF-CEM [12] = test: Cytotoxicity against human CCRF-CEM cells assessed as reduction in cell viability incubated for 72 hrs by MTS assay; format: functional, cell-based
# A549 = test: Cytotoxicity against human A549 cells assessed as reduction in cell viability incubated for 72 hrs by MTS assay; format: functional, cell-based; conditions: A549, 72 h
# [13] = Stability in human liver microsomes assessed as compound remaining at 2 uM measured at 60 mins in presence of NADPH by RF-MS analysis; format: ADME, Microsome; conditions: read-out: Stability
# HCT-116 [14] = test: Antitumor activity in human HCT-116 cells cultured as spheroids assessed as inhibition of cell growth at 10 uM incubated for 3 days; format: functional; design: scale not given: the % may be the effect or the level left; conditions: time 3 day
# HeLa = test: Antitumor activity in human HeLa cells cultured as spheroids assessed as inhibition of spheroid opening at 1 uM incubated for 3 days; format: functional, cell-based; conditions: time 3.0 day
# [15] = Cytotoxicity against human HCT116-p53-null cells assessed as reduction in cell viability incubated for 72 hrs by MTS assay; format: functional, cell-based
# [16] = Chemical stability in PBS buffer at pH 7.4 assessed as compound remaining measured at 15 mins by RF-MS analysis; format: physicochemical; conditions: read-out: Stability
# [17] = Cytotoxicity against human BJ cells assessed as reduction in cell viability incubated for 72 hrs by MTS assay; format: toxicity, cell-based
# [18] = Efflux ratio of apparent permeability across basolateral to apical side over apical to basolateral side in MDCK-MDR1 cells; format: ADME, cell-based, Canis lupus familiaris; conditions: dog
# [19] = Cytotoxicity against human K562-Tax cells assessed as reduction in cell viability incubated for 72 hrs by MTS assay; format: functional, cell-based
# CEM-DNR = test: Cytotoxicity against human CEM-DNR cells assessed as reduction in cell viability incubated for 72 hrs by MTS assay; format: functional, cell-based
# K562 = test: Cytotoxicity against human K562 cells assessed as reduction in cell viability incubated for 72 hrs by MTS assay; format: functional, cell-based; conditions: K562, 72 h
# [20] = Apparent permeability of the compound in MDCK-MDR1 cells at 10 uM incubated for 1 hr by RF-MS analysis; format: ADME, cell-based, Canis lupus familiaris; conditions: dog
# [21] = Plasma protein binding in human at 10 uM by rapid equilibrium dialysis based RF-MS analysis; format: ADME, cell-free; conditions: read-out: PB (converted)
# HCT-116 [22] = test: Cytotoxicity against human HCT-116 cells assessed as reduction in cell viability incubated for 72 hrs by MTS assay; format: functional, cell-based; conditions: HCT-116, 72 h
# CCRF-CEM [23] = test: Induction of apoptosis in human CCRF-CEM cells assessed as early apoptotic cells at 1 time IC50 incubated for 24 hrs by Annexin V and propidium iodide staining based flow cytometry analysis (reference value: […]); format: functional
# CCRF-CEM [24] = test: Induction of apoptosis in human CCRF-CEM cells assessed as late apoptotic cells at 5 times IC50 incubated for 24 hrs by Annexin V and propidium iodide staining based flow cytometry analysis […]; format: functional
# CCRF-CEM [25] = test: Induction of apoptosis in human CCRF-CEM cells assessed as increase in Noxa expression at 1 to 5 times IC50 incubated for 24 hrs by Western blot analysis; format: functional, cell-based
# CCRF-CEM [26] = test: Induction of apoptosis in human CCRF-CEM cells assessed as PARP cleavage at 1 to 5 times IC50 incubated for 24 hrs by Western blot analysis; format: functional, cell-based
# CCRF-CEM [27] = test: Induction of apoptosis in human CCRF-CEM cells assessed as late apoptotic cells at 1 time IC50 incubated for 24 hrs by Annexin V and propidium iodide staining based flow cytometry analysis (reference value: […]); format: functional
# CCRF-CEM [28] = test: Induction of apoptosis in human CCRF-CEM cells assessed as necrotic cells at 1 time IC50 incubated for 24 hrs by Annexin V and propidium iodide staining based flow cytometry analysis (reference value: 0.0%); format: functional
# CCRF-CEM [29] = test: Induction of apoptosis in human CCRF-CEM cells assessed as accumulation of Bid protein expression at 1 to 5 times IC50 incubated for 24 hrs by Western blot analysis; format: functional, cell-based
# CCRF-CEM [30] = test: Induction of apoptosis in human CCRF-CEM cells assessed as viable cells at 1 time IC50 incubated for 24 hrs by Annexin V and propidium iodide staining based flow cytometry analysis […]; format: functional
# CCRF-CEM [31] = test: Induction of apoptosis in human CCRF-CEM cells assessed as necrotic cells at 5 times IC50 incubated for 24 hrs by Annexin V and propidium iodide staining based flow cytometry analysis […]; format: functional
# CCRF-CEM [32] = test: Induction of apoptosis in human CCRF-CEM cells assessed as accumulation of Bax protein expression at 1 to 5 times IC50 incubated for 24 hrs by Western blot analysis; format: functional, cell-based
# CCRF-CEM [33] = test: Induction of apoptosis in human CCRF-CEM cells assessed as viable cells at 5 times IC50 incubated for 24 hrs by Annexin V and propidium iodide staining based flow cytometry analysis […]; format: functional
# CCRF-CEM [34] = test: Induction of apoptosis in human CCRF-CEM cells assessed as decrease in c-Myc expression at 1 to 5 times IC50 incubated for 24 hrs by Western blot analysis; format: functional, cell-based
# CCRF-CEM [35] = test: Induction of apoptosis in human CCRF-CEM cells assessed as early apoptotic cells at 5 times IC50 incubated for 24 hrs by Annexin V and propidium iodide staining based flow cytometry analysis […]; format: functional
SMILES,"remaining at 0.5 h, 2 µM [1] [%]",remaining at 2 h [2] [%],"remaining at 2 h, 2 µM [3] [%]","remaining at 1 h, 2 µM [4] [%]","remaining at 0.25 h, 2 µM [5] [%]",IC50 (U2OS) [nM],"remaining at 0.25 h, 2 µM [6] [%]",remaining at 0.5 h [7] [%],"remaining at 0.5 h, 2 µM [8] [%]",remaining at 1 h [9] [%],IC50 at 72 h [10] [nM],"recovery at 1 h, 10 µM [11] [%]",IC50 (CCRF-CEM [12]) [nM],IC50 (A549) [nM],"remaining at 1 h, 2 µM [13] [%]",IC50 [15] [nM],remaining at 0.25 h [16] [%],IC50 at 72 h [17] [nM],efflux ratio [18],IC50 [19] [nM],also measured
C=C(C=O)[C@@H]1CC[C@]2(C(=O)OCc3cn([C@H]4O[C@H](COC(C)=O)[C@@H](OC(C)=O)[C@H](OC(C)=O)[C@H]4OC(C)=O)nn3)CC[C@]3(C)[C@H](CC[C@@H]4[C@@]5(C)CC[C@H](O)C(C)(C)[C@@H]5CC[C@]43C)[C@@H]12,82.7,83.8,82.3,87,95.6,1700,93.9,92.5,88.7,89.2,1700,103,600,1800,66.6,1700,97.1,1800,3.77,1600,"Activity (HCT-116 [14]): 100%; Activity (HeLa): Active; IC50 (CEM-DNR): 1600 nM; IC50 (K562): 1400 nM; Papp at 1 h, 10 µM [20]: 0.32 ×10⁻⁶ cm/s; fraction unbound at 10 µM [21]: 0.0015; IC50 (HCT-116 [22]): 1600 nM"
C=C(C)[C@@H]1CC[C@]2(C(=O)OCc3cn([C@H]4O[C@H](COC(C)=O)[C@@H](OC(C)=O)[C@H](OC(C)=O)[C@H]4OC(C)=O)nn3)CC[C@]3(C)[C@H](CC[C@@H]4[C@@]5(C)Cc6nccnc6C(C)(C)[C@@H]5CC[C@]43C)[C@@H]12 (stereo in doubt),98.3,92.9,87.1,88,99.3,> 50000,98.7,99.5,91.2,92.1,> 50000,87.7,> 50000,> 50000,97.8,> 50000,98.9,> 50000,7.1,> 50000,"IC50 (CEM-DNR): 49000 nM; IC50 (K562): > 50000 nM; Papp at 1 h, 10 µM [20]: 1.67 ×10⁻⁶ cm/s; fraction unbound at 10 µM [21]: 0.107; IC50 (HCT-116 [22]): > 50000 nM"
C=C(C)[C@@H]1CC[C@]2(C(=O)OCc3cn([C@H]4O[C@H](COC(C)=O)[C@@H](OC(C)=O)[C@H](OC(C)=O)[C@H]4OC(C)=O)nn3)CC[C@]3(C)[C@H](CC[C@@H]4[C@@]5(C)CC[C@H](O)C(C)(C)[C@@H]5CC[C@]43C)[C@@H]12,98.8,77.9,83.4,87.8,99,> 50000,94.3,92.7,92.2,82.3,> 50000,77,> 50000,> 50000,97,> 50000,98.5,> 50000,5.61,> 50000,"IC50 (CEM-DNR): > 50000 nM; IC50 (K562): > 50000 nM; Papp at 1 h, 10 µM [20]: 0.28 ×10⁻⁶ cm/s; fraction unbound at 10 µM [21]: 0.0044; IC50 (HCT-116 [22]): > 50000 nM"
C=C(C=O)[C@@H]1CC[C@]2(C(=O)OCc3cn([C@H]4O[C@H](COC(C)=O)[C@@H](OC(C)=O)[C@H](OC(C)=O)[C@H]4OC(C)=O)nn3)CC[C@]3(C)[C@H](CC[C@@H]4[C@@]5(C)Cc6nccnc6C(C)(C)[C@@H]5CC[C@]43C)[C@@H]12 (stereo in doubt),95.7,85.2,88.5,88.7,96.8,1600,104,91.1,97.2,87.8,1800,77.6,750,1800,58.9,1700,99.9,2300,4.49,2700,"Activity (CCRF-CEM [23]): 53.8%; Activity (CCRF-CEM [24]): 37.7%; Activity (CCRF-CEM [25]): Active; Activity (HCT-116 [14]): 100%; Activity (CCRF-CEM [26]): Active; Activity (CCRF-CEM [27]): 23.9%; Activity (CCRF-CEM [28]): 4.1%; Activity (CCRF-CEM [29]): Active; Activity (HeLa): Active; Activity (CCRF-CEM [30]): 18.1%; Activity (CCRF-CEM [31]): 1%; Activity (CCRF-CEM [32]): Active; Activity (CCRF-CEM [33]): 5.3%; Activity (CCRF-CEM [34]): Active; IC50 (CEM-DNR): 1500 nM; IC50 (K562): 1200 nM; Papp at 1 h, 10 µM [20]: 0.12 ×10⁻⁶ cm/s; fraction unbound at 10 µM [21]: 0.0017; Activity (CCRF-CEM [35]): 56%; IC50 (HCT-116 [22]): 1500 nM"
